Results published in the supplement of paper PMC13380429.
± gives the standard deviation of the averaged measurements.

Legend:
Details in all cases: 72 h
Calu-3 [1] = test: cell viability relative to DMSO; higher = less toxic
U2OS [2] = test: as above
Vero E6 [3] = test: as above
HepG2 [4] = test: as above
Caco-2 [5] = test: as above
Calu-3 [6] = test: drug sensitivity score (DSS) for viability; higher = more toxic; extreme values may be limits of the assay
U2OS [7] = test: as above
Vero E6 [8] = test: as above
HepG2 [9] = test: as above
Caco-2 [10] = test: as above
Calu-3 [11] = test: relative viability EC50 (midpoint between 100% and the lowest measured viability); higher = less toxic
U2OS [12] = test: as above
Vero E6 [13] = test: as above
HepG2 [14] = test: as above
Caco-2 [15] = test: as above

Row | SMILES | cell viability (Calu-3 [1]; 1 nM) [%] | cell viability (Calu-3 [1]; 10 nM) [%] | cell viability (Calu-3 [1]; 100 nM) [%] | cell viability (Calu-3 [1]; 1000 nM) [%] | cell viability (Calu-3 [1]; 10000 nM) [%] | cell viability (U2OS [2]; 1 nM) [%] | cell viability (U2OS [2]; 10 nM) [%] | cell viability (U2OS [2]; 100 nM) [%] | cell viability (U2OS [2]; 1000 nM) [%] | cell viability (U2OS [2]; 10000 nM) [%] | cell viability (Vero E6 [3]; 1 nM) [%] | cell viability (Vero E6 [3]; 10 nM) [%] | cell viability (Vero E6 [3]; 100 nM) [%] | cell viability (Vero E6 [3]; 1000 nM) [%] | cell viability (Vero E6 [3]; 10000 nM) [%] | cell viability (HepG2 [4]; 1 nM) [%] | cell viability (HepG2 [4]; 10 nM) [%] | cell viability (HepG2 [4]; 100 nM) [%] | cell viability (HepG2 [4]; 1000 nM) [%] | cell viability (HepG2 [4]; 10000 nM) [%] | cell viability (Caco-2 [5]; 1 nM) [%] | cell viability (Caco-2 [5]; 10 nM) [%] | cell viability (Caco-2 [5]; 100 nM) [%] | cell viability (Caco-2 [5]; 1000 nM) [%] | cell viability (Caco-2 [5]; 10000 nM) [%] | drug sensitivity score (Calu-3 [6]) | drug sensitivity score (U2OS [7]) | drug sensitivity score (Vero E6 [8]) | drug sensitivity score (HepG2 [9]) | drug sensitivity score (Caco-2 [10]) | relative viability EC50 (Calu-3 [11]) [µM] | relative viability EC50 (U2OS [12]) [µM] | relative viability EC50 (Vero E6 [13]) [µM] | relative viability EC50 (HepG2 [14]) [µM] | relative viability EC50 (Caco-2 [15]) [µM]
1 | CCN[C@@H](C)Cc1cccc(C(F)(F)F)c1 [dexfenfluramine] | 97.4 | 109 | 105 | 118 | 113 | 93.5 | 96.7 | 96.1 | 94.3 | 101 | 99.4 | 92.7 | 100 | 90.7 | 94.7 | 106 | 93.7 | 105 | 82.9 | 97.5 | 105 | 114 | 89.8 | 108 | 106 | 0 | 0 | 0 | 0 | 0 | > 10 | > 10 | > 10 | > 10 | > 10
2 | COC(=O)C1=C(C)NC(C)=C(C(=O)OCCCN2CCC(c3ccccc3)(c3ccccc3)CC2)[C@@H]1c1cccc([N+](=O)[O-])c1 [dexniguldipine] | 103.7 ± 0.42 | 94 ± 2.3 | 104.1 ± 0.71 | 99.2 ± 7.6 | 15.8 ± 14 | 102 ± 2.6 | 102 ± 2.5 | 100.8 ± 0.21 | 94.3 ± 7.8 | 20.8 ± 17 | 94 ± 1.9 | 99.7 ± 2.5 | 95 ± 3.6 | 94.35 ± 0.92 | 39.5 ± 2.3 | 102 ± 14 | 101 ± 3.4 | 94.7 ± 3.8 | 102 ± 3 | 16.8 ± 2 | 99.8 ± 0.28 | 100 ± 0.71 | 97.7 ± 7.6 | 91.4 ± 0.42 | 40.8 ± 7.7 | 4.95 ± 1.8 | 5.3 ± 2.3 | 4.2 | 4.5 ± 0.14 | 4.65 ± 0.49 | 3.03 | 2.61 | 2.39 | 3.26 | 2.01
3 | O=C(NC(O)C(Cl)(Cl)Cl)NC(O)C(Cl)(Cl)Cl (stereo not given) [dicloralurea] | 94.1 | 96.2 | 102 | 86.9 | 99.5 | 97 | 92.4 | 97.6 | 94.4 | 103 | 97.6 | 101 | 95.2 | 92.4 | 103 | 96.2 | 107 | 109 | 104 | 97.4 | 96.6 | 114 | 111 | 102 | 90.1 | 0 | 0 | 0 | 0 | 0 | > 10 | > 10 | > 10 | > 10 | > 10
4 | C[C@@H]1CC[C@@]2(OC1)O[C@H]1C[C@H]3[C@@H]4CC=C5C[C@@H](O)CC[C@]5(C)[C@H]4CC[C@]3(C)[C@H]1[C@@H]2C [diosgenin] | 96.8 | 91.3 | 84.2 | 95.4 | 95.4 | 95.9 | 99.1 | 101 | 99.9 | 98.1 | 102 | 107 | 102 | 103 | 98.1 | 101 | 105 | 98.8 | 102 | 106 | 105 | 97.9 | 101 | 94.5 | 101 | 0 | 0 | 0 | 0 | 0 | > 10 | > 10 | > 10 | > 10 | > 10
5 | CCCCCCCCCCCCOS(=O)(=O)O [dodecyl-sulfate] | 106 ± 17 | 94.5 ± 9 | 103 ± 4.2 | 90.5 ± 6.3 | 106 ± 3.5 | 100 ± 4.9 | 93.5 ± 0.28 | 102 ± 4 | 91.7 ± 0.28 | 100 ± 4.6 | 100 ± 5.2 | 102 ± 7.9 | 95.7 ± 5.3 | 104 ± 1.7 | 101 ± 6.7 | 106 ± 15 | 106 ± 12 | 102 ± 7 | 99.6 ± 5.7 | 92.1 ± 3.1 | 101 ± 8.6 | 99.5 ± 16 | 102 ± 3.1 | 99.2 ± 3.1 | 106 ± 27 | 0 | 0 | 0 | 0 | 0.05 ± 0.071 | > 10 | > 10 | > 10 | > 10 | > 10
6 | COc1cc2c(cc1OC)CN(CCc1ccc(NC(=O)c3cccc4c(=O)c5cccc(OC)c5[nH]c34)cc1)CC2 [elacridar] | 98.9 | 94.3 | 99.6 | 101 | 89 | 96.5 | 99.3 | 99.2 | 100 | 99.8 | 97 | 94.8 | 98.7 | 93.5 | 103 | 99.6 | 107 | 101 | 96.6 | 97.9 | 97.3 | 91.6 | 92.2 | 95.5 | 88.3 | 0 | 0 | 0 | 0 | 0 | > 10 | > 10 | > 10 | > 10 | > 10
